Laboratory results: patent publication US5597801A, “Biocidal proteins” (priority 1991, dated 1997)
Where no end group is shown, it is not given here.

Tests used:
Phytophthora infestans = assay type: cell-based
[1] = test system: Bacillus megaterium ATCC 13632; assay: Antibacterial activity assay (microspectrophotometry); assay type: cell-based; details: B megaterium; 24 hours of incubation at 28° C.
Sarcina lutea ATCC 9342 = assay: as above; assay type: cell-based; details: S lutea; 24 hours of incubation at 28° C.
[2] = test system: Erwinia carotovora strain 3912; assay: as above; assay type: cell-based; details: E carotovora; highest test concentration 500 μg/ml
[3] = test system: Escherichia coli strain HB101; assay: as above; assay type: cell-based; details: E coli; for IC50 (antibacterial activity): Table 4, highest test concentration 500 μg/ml; for IC50 (activity on bacteria): Table 5
[4] = Chitin-binding activity (chitin micro-column, SDS-PAGE of fractions); details: 50 μg on chitin micro-column; washed at pH 7, desorbed with 100 mM acetic acid (pH 2.8)
B cinerea = assay: Effect of ions on antifungal activity (synthetic growth medium); assay type: cell-based, Botrytis cinerea; details: for increase of IC50 values by CaCl2 at 1 mM: reference medium + 1 mM CaCl2; for drop in specific activity at 5 mM CaCl2: reference medium + 5 mM CaCl2; for effect of KCl at 10 mM on the dose-response curves: reference medium + 10 mM KCl; for increase of IC50 values by KCl at 50 mM: reference medium + 50 mM KCl; for IC50 in reference medium: synthetic growth medium, 2.5 mM monovalent and 0.1 mM divalent cations
Fusarium culmorum spores [5] = assay type: cell-based; details: F culmorum spores; protein 2-4 fold below the IC50 value; light microscope
Excerpt: During the course of screening many different plant species it has become evident that the protein class of the invention is fairly common in plant seeds. […] This is particularly evident when using Fusarium culmorum. The nature of the inhibition may also be characterized by the fact that it is very sensitive to the concentration of cations used in the assay.
This is readily visualised when Fusarium culmorum spores are used in the assay and at concentrations of the proteins which are 2-4 fold below the IC50 value.

Fusarium culmorum spores [6] = assay type: physicochemical; details: for antifungal activity after heat treatment at up to 80° C.: 10 minutes, F culmorum assay; for antifungal activity after reduction of disulphide bonds: reduction by DTE / dithiothreitol
Procedure: Tests for antifungal activity were performed with 20 μl samples diluted five-fold with growth medium containing Fusarium culmorum spores, according to the assay method given in Example 1. Untreated control samples consisted of the test proteins at 500 μg/ml in 10 mM sodium phosphat buffer (pH 7). For digestions, different proteases were added at 100 μg/ml and incubated at 37° C. for 16 hours. Heat stability tests were performed by heating aliquots of the test proteins for 10 minutes at different temperatures up to 100° C. pH stability was tested by incubation of test proteins for 1 hour in either 20 mM glycine-HCl (pH 2) or glycine-NaOH (pH 11) and subsequent dialysis for 16 hours against 10 mM sodium phosphate buffer (pH 7) using benzoylated cellulose tubing. Reduction of dishulphide bridges was done by addition of DTE at 30 mM and Tris-HCl (pH 8.6) at 300 mM. The reagents were removed by reversed-phase chromatography. For digestions, different proteases were added at 200 μg/ml and incubated at 37° C. for 3 hours.

plant pathogenic fungi = assay type: cell-based
[7] = test system: Alternaria brassicola MUCL 20297; assay type: cell-based
[8] = test system: Ascochyta pisi MUCL 30164; assay type: cell-based
[9] = test system: Botrytis cinerea MUCL 30158; assay type: cell-based
[10] = test system: Cercospora beticola strain K897; assay type: cell-based
[11] = test system: Colletotrichum lindemuthianum MUCL 9577; assay type: cell-based
[12] = test system: Verticillium dahliae MUCL 19210; assay type: cell-based
[13] = test system: Alternaria longipes strain CBS 620.83; assay: Antifungal activity assay (growth inhibition, microspectrophotometry); assay type: cell-based; details: A longipes; medium B (medium A + 1 mM CaCl2, 50 mM KCl); 48 h
[14] = test system: Cladosporium sphaerospermum strain KO791; assay: as above; assay type: cell-based; details: C sphaerospermum; medium B (medium A + 1 mM CaCl2, 50 mM KCl); 48 h

Substance	IC50 (antibacterial activity) (Sarcina lutea ATCC 9342)	IC50 (antibacterial activity) [2]	IC50 (antibacterial activity) [3]	affinity toward chitin [4]	increase of IC50 values by CaCl2 at 1 mM (B cinerea)	drop in specific activity at 5 mM CaCl2 (B cinerea)	effect of KCl at 10 mM on the dose-response curves (B cinerea)	increase of IC50 values by KCl at 50 mM (B cinerea)	IC50 in reference medium (B cinerea)	morphological change of partially inhibited spores (Fusarium culmorum spores [5])	IC50 (activity on bacteria) [3]	antifungal activity after heat treatment at up to 80° C. (Fusarium culmorum spores [6])	antifungal activity after reduction of disulphide bonds (Fusarium culmorum spores [6])	antifungal activity in high salt (medium B) (plant pathogenic fungi)	other results
Ac-AMP1: antimicrobial protein from Amaranthus caudatus seeds, 29 residues, dimer of 3 kDa subunits (SEQ ID NO:5) (VGECVRGRCPSGMCCSQFGYCGKGPKYCG; cysteine pairing not given here; also: dimer of subunits)	250 µg/mL	no inhibition	no inhibition	exhibit affinity toward chitin	five to six-fold	more than 50 fold	did not significantly affect	about three-fold	2.2 µg/mL	severe branching of the emerging hyphal tips	–	–	–	–	IC50 (concentration required for 50% growth inhibition) (Phytophthora infestans): 12; IC50 (antibacterial activity) [1]: 40 µg/mL
Ca-AMP1: antimicrobial protein purified from seeds of Capsicum annuum (SEQ ID NO:15) (QEQCGNQAGGRACANRLCCSQYGYCGSTRAYCGVGCQSNCGR)	–	–	–	exhibits affinity to chitin	–	–	–	–	–	severe branching of the emerging hyphal tips	> 800 µg/mL	resistant	completely abolished	essentially abolished	antifungal activity after treatment with chymotrypsin (Fusarium culmorum spores [6]; chymotrypsin): no affect on activity; reduction of antifungal activity after treatment with pronase E (Fusarium culmorum spores [6]; pronase E): at least 10 fold; reduction of antifungal activity after treatment with proteinase K (Fusarium culmorum spores [6]; proteinase K): at least 10 fold; reduction of antifungal activity after treatment with trypsin (Fusarium culmorum spores [6]; trypsin): 2 fold; number of fungi with IC50 value below 50 μg/ml (plant pathogenic fungi): 12 of the 18
Ac-AMP2: antimicrobial protein from Amaranthus caudatus seeds, 30 residues, Ac-AMP1 plus carboxyl-terminal arginine (SEQ ID NO:6) (VGECVRGRCPSGMCCSQFGYCGKGPKYCGR)	40 µg/mL	no inhibition	no inhibition	exhibit affinity toward chitin	five to six-fold	more than 50 fold	did not significantly affect	about three-fold	1.6 µg/mL	–	–	–	–	–	IC50 (concentration required for 50% growth inhibition) [7]: 4; IC50 (concentration required for 50% growth inhibition) [8]: 8; IC50 (concentration required for 50% growth inhibition) [9]: 8; IC50 (concentration required for 50% growth inhibition) [10]: 0.8; IC50 (concentration required for 50% growth inhibition) [11]: 8; IC50 (concentration required for 50% growth inhibition) [12]: 5
Bm-AMP1: antimicrobial protein purified from seeds of Briza maxima; may be a mixture of peptides varying at positions 9 and 23 (SEQ ID NO:16)	–	–	–	–	–	–	–	–	–	–	> 800 µg/mL	resistant	completely abolished	essentially abolished	IC50 Medium B [13]: > 500 µg/mL; IC50 Medium B [14]: > 500 µg/mL; number of fungi with IC50 value below 10 μg/ml (plant pathogenic fungi): six of the eight
